Measured values published in US12396459B2, “Synergistically effective herbicide composition comprising pyridate and at least one defined 4-HPPD inhibitor” (BELCHIM CROP PROTECTION NV, priority 2018, dated 2025).

Key:
Type in all cases: in vivo
Sorghum halepense = assay: Field trial post-emergence in maize: SORHA; conditions: 7-14 DAA; # = 1; g a.c./ha: PYR 300, MES 100, PYR + MES 300 + 90
Protocol: (§1) Herbicidal activity of herbicide compositions according to the first aspect of the present invention with regard to different types of unwanted vegetation was determined during trials performed on test fields (field trials). Individual compositions comprising pyridate and individual compositions comprising a defined 4-HPPD inhibitor are compared with a herbicide composition according to the invention comprising both pyridate and a defined 4-HPPD inhibitor. The expected activity of the combination of the active compounds pyridate and a defined 4-HPPD inhibitor is calculated according to above mentioned calculation method by Colby, in order to evaluate a synergistic effect between pyridate and a defined 4-HPPD inhibitor.
(§2) Herbicidal activity was determined by applying herbicide compositions on emerged unwanted vegetation on fields where maize was cultivated. Pyridate and a defined 4-HPPD inhibitor were applied as a tank mixture by mixing these active compounds prior to use in a spray tank. The corresponding mixture was in the form of a spray liquor. […] At a specified number of days after application (DAA), the degree of damage to the unwanted vegetation is rated in % of plants of unwanted vegetation that were killed, which was assessed by visually controlling the plants.

Viola arvensis = assay: Field trial post-emergence in maize: VIOAR
Protocol: as §1
(§3) Herbicidal activity was determined by applying herbicide compositions on emerged unwanted vegetation on fields where maize was cultivated. Pyridate and a defined 4-HPPD inhibitor were applied as a tank mixture by mixing these active compounds prior to use in a spray tank. The corresponding mixture was in the form of a spray liquor. Besides, spray liquors of individual compositions comprising pyridate and of individual compositions comprising a defined 4-HPPD inhibitor were used. Test plants of unwanted vegetation with a growth stage corresponding to BBCH 10-18 (according to the extended BBCH-scale) were sprayed with the active compound preparations such that particular desired amounts of active compounds are applied per unit area. Spray liquor was diluted with water to arrive at an application volume of 50 to 450 L/ha. At a specified number of days after application (DAA), the degree of damage to the unwanted vegetation is rated in % of plants of unwanted vegetation that were killed, which was assessed by visually controlling the plants.
(§4) Example 1 concerns a herbicide composition comprising a combination of pyridate and mesotrione, which was applied post-emergence on unwanted vegetation on a field where maize was cultivated, according to the test conditions mentioned above.

Anagallis arvensis = assay: Field trial post-emergence in maize: ANGAR; conditions: 7-14 DAA; # = 2; g a.c./ha: PYR 300, MES 100, PYR + MES 300 + 90
Protocol: as §1, §2

Polygonum aviculare = assay: Field trial post-emergence in maize: POLAV
Protocol: as §1, §3, §4

Setaria verticillata [1] = assay: Examples 6-8 herbicidal effect: SETVE; conditions: 7 DAA
Setaria verticillata [2] = assay: Field trial post-emergence in maize: SETVE
Protocol: as §1, §3, §4

[3] = test system: Brassica rapa Canola cultivars; assay: Field trial post-emergence in maize: BRSRC; conditions: 13-14 DAA; # = 1; g a.c./ha: PYR 450, MES 144, PYR + MES 450 + 144
Protocol: as §1, §3

Galium aparine = assay: Field trial post-emergence in maize: GALAP
Protocol: as §1, §3, §4

[4] = test system: Tripleurospermum inodorum; assay: Field trial post-emergence in maize: MATIN; conditions: for herbicidal effect (h.e.): # = 1, g a.c./ha: PYR 300, MES 100, PYR + MES 300 + 90
Protocol: as §1, §3

Amaranthus retroflexus = assay: Field trial post-emergence in maize: AMARE; conditions: 13-14 DAA; # = 1; g a.c./ha: PYR 450, MES 144, PYR + MES 450 + 144
Protocol: as §1, §3

Cirsium arvense = assay: Field trial post-emergence in maize: CIRAR; conditions: # = 1, g a.c./ha: PYR 300, MES 100, PYR + MES 300 + 90
Protocol: as §1, §3

Echinochloa crus-galli = assay: Field trial post-emergence in maize: ECHCG; conditions: for herbicidal effect (h.e.): g a.c./ha: PYR 300, MES 100, PYR + MES 300 + 90
Protocol: as §1, §3

Setaria viridis = assay: Field trial post-emergence in maize: SETVI
Protocol: as §1, §3, §4

Veronica persica = assay: Examples 6-8 herbicidal effect: VERPE; conditions: 7 DAA
Geranium sp. = assay: Field trial post-emergence in maize: GERSS; conditions: # = 1, g a.c./ha: PYR 300, MES 100, PYR + MES 300 + 90
Protocol: as §1, §3

Chenopodium album = assay: Examples 6-8 herbicidal effect: CHEAL; conditions: 7 DAA
Persicaria maculosa = assay: Field trial post-emergence in maize: POLPE; conditions: for herbicidal effect (h.e.): g a.c./ha: PYR 300, MES 100, PYR + MES 300 + 90
Protocol: as §1, §3

Thlaspi arvense = assay: Field trial post-emergence in maize: THLAR; conditions: # = 1, g a.c./ha: PYR 300, MES 100, PYR + MES 300 + 90
Protocol: as §1, §3

Xanthium spinosum = assay: Field trial post-emergence in maize: XANSP; conditions: 7-14 DAA; # = 3; g a.c./ha: PYR 300, MES 100, PYR + MES 300 + 90
Protocol: as §1, §2

Sonchus oleraceus = assay: Field trial post-emergence in maize: SONOL; conditions: # = 1, g a.c./ha: PYR 300, MES 100, PYR + MES 300 + 90
Protocol: as §1, §3

[5] = g a.c./ha: MES 50, PYR + SMO 300 + 800
[6] = g a.c./ha: MES 80, PYR + MES 300 + 50

CS(=O)(=O)c1ccc(C(=O)C2C(=O)CCCC2=O)c([N+](=O)[O-])c1 [MES, 2-(4-methylsulfonyl-2-nitrobenzoyl) cyclohexane-1,3-dione]
herbicidal effect (h.e.) (Sorghum halepense): 42%
MES h.e. (Viola arvensis; VIOAR 14-20 DAA 45 g a.c./ha): 84%
MES h.e. (Viola arvensis; VIOAR 14-20 DAA 90 g a.c./ha): 95%
MES h.e. (Viola arvensis; VIOAR 14-20 DAA 135 g a.c./ha): 98%
herbicidal effect (h.e.) (Anagallis arvensis): 98%
MES h.e. (Polygonum aviculare; POLAV 14-20 DAA 45 g a.c./ha): 61%
MES h.e. (Polygonum aviculare; POLAV 14-20 DAA 90 g a.c./ha): 76%
MES h.e. (Polygonum aviculare; POLAV 24-31 DAA 90 g a.c./ha): 58%
herbicidal effect (h.e.) (Setaria verticillata [1]; [5]): 0%
herbicidal effect (h.e.) (Setaria verticillata [1]; [6]): 3%
MES h.e. (Setaria verticillata [2]; SETVE 14-20 DAA 45 g a.c./ha): 21%
MES h.e. (Setaria verticillata [2]; SETVE 14-20 DAA 90 g a.c./ha): 41%
MES h.e. (Setaria verticillata [2]; SETVE 14-20 DAA 135 g a.c./ha): 55%
MES h.e. (Setaria verticillata [2]; SETVE 24-31 DAA 45 g a.c./ha): 31%
MES h.e. (Setaria verticillata [2]; SETVE 24-31 DAA 90 g a.c./ha): 37%
MES h.e. (Setaria verticillata [2]; SETVE 24-31 DAA 135 g a.c./ha): 58%
herbicidal effect (h.e.) [3]: 88%
MES h.e. (Galium aparine; GALAP 14-20 DAA 45 g a.c./ha): 30%
MES h.e. (Galium aparine; GALAP 14-20 DAA 90 g a.c./ha): 80%
MES h.e. (Galium aparine; GALAP 14-20 DAA 135 g a.c./ha): 92%
MES h.e. (Galium aparine; GALAP 24-31 DAA 45 g a.c./ha): 40%
MES h.e. (Galium aparine; GALAP 24-31 DAA 90 g a.c./ha): 90%
MES h.e. (Galium aparine; GALAP 24-31 DAA 135 g a.c./ha): 91%
herbicidal effect (h.e.) ([4]; 7-14 DAA): 77%
herbicidal effect (h.e.) ([4]; 18-28 DAA): 78%
herbicidal effect (h.e.) ([4]; 31-48 DAA): 80%
MES h.e. ([4]; MATIN 24-31 DAA 45 g a.c./ha): 80%
herbicidal effect (h.e.) (Amaranthus retroflexus): 45%
herbicidal effect (h.e.) (Cirsium arvense; 7-14 DAA): 58%
herbicidal effect (h.e.) (Cirsium arvense; 31-48 DAA): 78%
herbicidal effect (h.e.) (Echinochloa crus-galli; 7-14 DAA, # = 9): 67%
herbicidal effect (h.e.) (Echinochloa crus-galli; 18-28 DAA, # = 14): 51%
herbicidal effect (h.e.) (Echinochloa crus-galli; 31-48 DAA, # = 13): 50%
MES h.e. (Echinochloa crus-galli; ECHCG 14-20 DAA 45 g a.c./ha): 86%
MES h.e. (Echinochloa crus-galli; ECHCG 14-20 DAA 90 g a.c./ha): 95%
MES h.e. (Echinochloa crus-galli; ECHCG 14-20 DAA 135 g a.c./ha): 97%
MES h.e. (Echinochloa crus-galli; ECHCG 24-31 DAA 45 g a.c./ha): 80%
MES h.e. (Echinochloa crus-galli; ECHCG 24-31 DAA 90 g a.c./ha): 95%
MES h.e. (Echinochloa crus-galli; ECHCG 24-31 DAA 135 g a.c./ha): 97%
MES h.e. (Setaria viridis; SETVI 14-20 DAA 45 g a.c./ha): 83%
MES h.e. (Setaria viridis; SETVI 14-20 DAA 90 g a.c./ha): 92%
MES h.e. (Setaria viridis; SETVI 14-20 DAA 135 g a.c./ha): 95%
MES h.e. (Setaria viridis; SETVI 24-31 DAA 45 g a.c./ha): 72%
MES h.e. (Setaria viridis; SETVI 24-31 DAA 90 g a.c./ha): 92%
MES h.e. (Setaria viridis; SETVI 24-31 DAA 135 g a.c./ha): 95%
herbicidal effect (h.e.) (Veronica persica; [5]): 33%
herbicidal effect (h.e.) (Veronica persica; [6]): 57%
herbicidal effect (h.e.) (Geranium sp.; 7-14 DAA): 44%
herbicidal effect (h.e.) (Geranium sp.; 18-28 DAA): 41%
herbicidal effect (h.e.) (Geranium sp.; 31-48 DAA): 31%
herbicidal effect (h.e.) (Chenopodium album; [5]): 77%
herbicidal effect (h.e.) (Chenopodium album; [6]): 92%
herbicidal effect (h.e.) (Persicaria maculosa; 7-14 DAA, # = 3): 91%
herbicidal effect (h.e.) (Persicaria maculosa; 31-48 DAA, # = 4): 89%
MES h.e. (Persicaria maculosa; POLPE 14-20 DAA 45 g a.c./ha): 83%
MES h.e. (Persicaria maculosa; POLPE 14-20 DAA 90 g a.c./ha): 98%
MES h.e. (Persicaria maculosa; POLPE 14-20 DAA 135 g a.c./ha): 98%
MES h.e. (Persicaria maculosa; POLPE 24-31 DAA 45 g a.c./ha): 93%
herbicidal effect (h.e.) (Thlaspi arvense; 7-14 DAA): 76%
herbicidal effect (h.e.) (Thlaspi arvense; 18-28 DAA): 97%
herbicidal effect (h.e.) (Xanthium spinosum): 97%
herbicidal effect (h.e.) (Sonchus oleraceus; 7-14 DAA): 90%
herbicidal effect (h.e.) (Sonchus oleraceus; 18-28 DAA): 54%
herbicidal effect (h.e.) (Sonchus oleraceus; 31-48 DAA): 41%
